Measured values published in PubChem BioAssay (NCI).
Where “and” joins values, the source holds several entries; their conditions need not be identical. Equal values may be shown once.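 Cells were grown in 96-well plates and exposed to each compound for 48 hours at five concentrations; endpoints were interpolated linearly between bracketing concentrations, or set to the highest concentration if not reached. The concentration for 50% growth inhibition is given as GI50. TGI: concentration producing complete growth inhibition.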

What was measured:
Test in all cases: NCI anticancer screen, dose series, 48 h
[1] = system: K-562 leukemia
[2] = system: NCI-H460 lung
[3] = system: OVCAR-5 ovarian
[4] = system: U251 CNS
[5] = system: HL-60(TB) leukemia
[6] = system: PC-3 prostate
[7] = system: SF-295 CNS
[8] = system: MOLT-4 leukemia
[9] = system: MDA-MB-435
[10] = system: SK-MEL-28 melanoma

| Compound | GI50 [1] | TGI [1] [µM] | GI50 [2] | TGI [2] [µM] | GI50 [3] | TGI [3] [µM] | GI50 [4] | TGI [4] [µM] | GI50 [5] | TGI [5] | GI50 [6] | TGI [6] [µM] | GI50 [7] | TGI [7] | GI50 [8] | TGI [8] [µM] | GI50 [9] | TGI [9] [µM] | GI50 [10] | TGI [10] |
| --- | --- | --- | --- | --- | --- | --- | --- | --- | --- | --- | --- | --- | --- | --- | --- | --- | --- | --- | --- | --- |
| Clc1ccc(-c2nc(-c3c[nH]c4ncccc34)cs2)cc1 | > 100 µM | > 100 | > 100 µM | > 100 | > 100 µM | > 100 | > 100 µM | > 100 | > 100 µM | > 100 µM | > 100 µM | > 100 | > 100 µM | > 100 µM | > 100 µM | > 100 | > 100 µM | > 100 | > 100 µM | > 100 µM |
| O=C(/C=C\c1cccc([N+](=O)[O-])c1)c1ccccc1 | 2.21 µM | > 100 | 7.54 µM | 28.5 | 3.92 µM | 18.7 | 2.01 µM | 4.91 | 2.91 µM | > 100 µM | 2.67 µM | 11.3 | 7.68 µM | 29.5 µM | 3.19 µM | > 100 | 3.53 µM | 14.4 | 2.17 µM | 4.6 µM |
| S=C(Nc1ccc(-c2nc3ccccc3s2)cc1)Nc1ccccn1 | 27.6 µM | > 100 | 41.2 µM | > 100 | > 52.8 µM | > 81.4 | 27.9 µM | > 100 | 30.7 µM | > 100 µM | 23.6 µM | > 71.7 | 24.5 µM | 66.3 µM | 18.8 µM | > 86.7 | 28.4 µM | 97.2 | 35.3 µM | > 95.4 µM |
| C[C@H]1O[C@@H](O[C@H]2[C@@H](O)C[C@H](O[C@H]3[C@@H](O)C[C@H](O[C@H]4CC[C@]5(C)C6C[C@@H](O)[C@]7(C)[C@@H](C8=CC(=O)OC8)CC[C@]7(O)C6CC[C@@H]5C4)O[C@@H]3C)O[C@@H]2C)C[C@H](O)[C@@H]1O (stereo partly drawn) | 0.117 µM | 0.413 | 0.0197 µM | 0.0748 | 0.114 µM | 0.286 | 0.0668 µM | 0.145 | 0.034 µM | 0.12 µM | 0.0573 µM | 0.783 | 0.0595 µM | 0.233 µM | 0.0176 µM | 0.147 | 0.135 µM | 0.418 | 0.104 µM | 0.222 µM |
| Cc1oncc1C(=O)Nc1ccc(C(F)(F)F)cc1 | 12.1 µM | > 100 | 24.8 µM | > 100 | > 100 µM | > 100 | 14.7 µM | > 100 | 24.5 µM | > 100 µM | 13.9 µM | > 100 | 19.5 µM | > 100 µM | 36.4 µM | > 100 | 46.9 µM | > 100 | 56.7 µM | > 100 µM |
| CCNC(=O)Nc1ccc(-c2nc3c(c(N4CCOC[C@@H]4C)n2)CCN(C2COC2)C3)cc1 | 1.27 µM and 1.1 µM | > 100 | 0.236 µM and 0.13 µM | > 100 | 0.302 µM and 0.384 µM | > 37.1 | 0.357 µM and 0.413 µM | > 100 | 7.44 µM and 4.61 µM | > 100 µM | 0.166 µM and 0.106 µM |  | 0.158 µM and 0.166 µM | 1.43 µM and 1.84 µM | 0.521 µM and 0.911 µM | > 100 | 0.3 µM and 0.318 µM | > 25.6 | 0.199 µM and 0.157 µM | 5.39 µM and 2.24 µM |
| COc1cc(-c2nn(C)nc2-c2cc3ccccc3s2)cc(OC)c1OC | 0.0428 µM | > 100 | 0.0699 µM | > 100 | 2.39 µM | > 100 | 0.0783 µM | 30.5 | 0.0488 µM | 1.07 µM | 0.0779 µM | > 100 | 0.036 µM | 15.3 µM | 0.333 µM | > 100 | 0.0257 µM | 0.0995 | 13 µM | > 100 µM |
| CNC(=O)c1cc(Oc2ccc3nc(NC(=O)c4cc(C(F)(F)F)cc(C(F)(F)F)c4)sc3c2)ccn1 | 3.53 µM | > 100 | 3.83 µM | 14.6 | 4.23 µM | 25 | 3.65 µM | 13.7 | 2.49 µM | 5.11 µM | 2.53 µM | 12.8 | 2.56 µM | 10.5 µM | 2.62 µM | 12.4 | 3.28 µM | 20.4 | 3.76 µM | 43.7 µM |
| O=C1C(CN(Cc2ccccc2)Cc2ccccc2)CCCC1CN(Cc1ccccc1)Cc1ccccc1 (stereo not drawn) | 54.3 µM and > 86.3 µM | > 100 |  | > 100 |  | > 100 | 41.7 µM and > 100 µM | > 100 |  | 12 µM and > 100 µM | > 100 µM and 41.5 µM | > 100 |  | > 100 µM |  | > 100 |  | > 100 | 21 µM and > 100 µM | 38.8 µM and > 100 µM |
